Data taken from patent US5709901A (priority 1994, dated 1998).
Entries after “also recorded” stand apart in the source; their conditions may differ. Square brackets hold non-standard residues; d marks the D form. Peptide text beside a SMILES is read from it. * marks the point of attachment. Sta = CC(C)C[C@H](N)[C@@H](O)CC(=O)O; Isovaleryl = CC(C)CC(=O)*

Key:
PF-1 = type: biochemical, Bacillus sp. KSM-PF1; details: for residual activity of PF-1 relative to control as 100: pH 7
PF-2 = type: biochemical, Bacillus sp. KSM-PF2; details: for residual activity of PF-2 relative to control as 100: pH 7
[1] = Meat tenderization test, 5-mm thick round (Example 3, FIG. 1); details: for tenderizing effect (in words) / time in which the tenderizing effect is exerted: 5-mm thick meat, 20° C., per 10 g: PF-1 100 U, papain 10 U or 1 U, elastase 250 U; for tenderizing effect (in words): PF-2 45 U; for time to overtenderizing effect: 5 mm or 15 mm
Description: The metalloprotease of the present invention preferably tenderizes round in such a manner that the shear force value of the round thus tenderized is from 20% to 70% (preferably from 25% to 65%, particularly from 30% to 50% of that of the untenderized round (round which has not been processed with the metalloprotease of the present invention) when the round has a thickness of 5 mm. The shear force value as defined herein is determined by subjecting the meat sample to cutting by a meat shear (Warner Bratzler Type 3000, available from Warner Bratzler Corp.). The meat sample is obtained by subjecting round to enzymatic processing at a temperature of 20° C., and then grilled-the round thus processed on both sides thereof at 200° C. (grilled on one side for 1 minute and one the other side for 45 seconds).
As the meat to be tested there was used a low grade round (100 g) imported from Australia. The meat was sliced to 5-mm thick pieces by a meat slicer. Prominent strings were removed. About 20 g of the sliced meat was then molded. The molded meat was uniformly sprinkled with the enzyme powder, covered with a wrap, and then allowed to stand at room temperature (20° C.) for a predetermined period of time. The meat thus processed was then grilled over a 200° C. hot plate for 1 minute on one side and for 45 seconds on the other side. The meat thus grilled was then cut into 3-cm wide strips. The strips were then measured for shear force value (SFV) by means of a meat shear (Warner Bratzler Type 3000, available from Warner Bratzler Corp.). As comparative enzymes, a papain powder (available from Amano Co., Ltd.) and an elastase powder (reagent available from Sigma Co., Ltd.) were subjected to the same meat tenderization test as mentioned above.

[2] = Meat tenderization test, 15-mm thick round (Example 4, FIG. 2); details: 15-mm thick meat, 20° C., per 10 g: PF-1 100 U, papain 10 U or 1 U, elastase 250 U; for tenderizing effect (in words): PF-2 45 U
Description: The same meat as used in Example 3 was sliced perpendicular to muscular fibers to 15-mm thick pieces by a meat slicer. A maximum homogeneous portion of the sliced meat was molded into an about 30 g rod. The molded meat was uniformly sprinkled with the enzyme powder, covered with a wrap, and then allowed to stand at room temperature (20° C.) for a predetermined period of time. The meat thus processed was then grilled over a 200° C. hot plate for 3 minutes on each side. The meat thus grilled was cut into 2-cm wide strips which were then measured for shear force value in the same manner as in Example 3. As comparative enzymes, the same papain powder (available from Amano Co., Ltd.) and elastase powder (reagent available from Sigma Co., Ltd.) as used in Example 3 were subjected to the same meat tenderization test as mentioned above.

[3] = Meat tenderization test of conventional proteases (background); details: for time to overtenderize the meat: 0.1 based on the weight of the meat
Source text: As a meat tenderizer there has been heretofore used a protease. One of the most frequently used meat tenderizers is papain derived from papaya. However, papain is disadvantageous in that it is hard to control in tenderization (i.e., control over the progress of tenderization to a proper level) and its use is restricted by the added amount thereof and the processing time. In fact, papain was subjected to meat tenderization test. As a result, even when used in an amount as extremely small as 0.1 based on the weight of the meat to be tested, this enzyme overtenderized the meat within 1 hour at room temperature and in a period of time as short as 24 hours at a temperature as low as 4° C. The meat thus overtenderized was too unsavory to be served. This is because proteases derived from plants have a low substrate specificity.
On the other hand, a method has been proposed which comprises the specific decomposition of a connective tissue in a meat with elastase, which has a high substrate specificity, to tenderize the meat (JP-A-4-197156 (The term "JP-A" as used herein means an "unexamined published Japanese patent application"), JP-A-5-276899). However, this approach is disadvantageous in that elastase is hard to produce and must be used in a relatively large amount and requires a prolonged processing time to exert desired effects as compared with the foregoing proteases. It has also been point out that elastase cannot tenderize a meat sufficiently even if the added amount thereof and the processing time are increased (JP-A-6-169729).

Molecule | inhibition of PF-1 activity (in words) (PF-1) | residual activity of PF-1 relative to control as 100 (PF-1) | inhibition of PF-2 activity (in words) (PF-2) | residual activity of PF-2 relative to control as 100 (PF-2) | other results
O[C@H](CS)[C@H](O)CS (racemic) [DTT, dithiothreitol] | not inhibited | 70% | not inhibited | 81% | –
[Ca+2].[Cl-].[Cl-] [CaCl2] | – | 104% | – | 76% | –
[Cl-].[Cl-].[Co+2] [CoCl2] | – | 103% | – | 78% | –
[Cl][Cu][Cl] [CuCl2] | – | 37% | – | 20% | –
O=C(O)CN(CCN(CC(=O)O)CC(=O)O)CC(=O)O [EDTA, ethylenediaminetetraacetic acid] | inhibited | 45% | inhibited | 30% | –
[Cl][Fe][Cl] [FeCl2] | – | – | – | 28% | –
[Cl][Fe]([Cl])[Cl] [FeCl3] | – | 98% | – | 9% | –
[Cl][Hg][Cl] [HgCl2] | – | 40% | – | 62% | –
[Cl-].[Cl-].[Mg+2] [MgCl2] | – | 107% | – | 74% | –
[Cl][Mn][Cl] [MnCl2] | – | 103% | – | 62% | –
O=C(O)CI [Monoiodoacetic acid, monoiodoacetic acid] | not inhibited | 105% | not inhibited | 100% | –
[Cl][Ni][Cl] [NiCl2] | – | 92% | – | 28% | –
O=S(=O)(F)Cc1ccccc1 [PNSF, phenylmethanesulfonylfluoride] | not inhibited | 124% | not inhibited | 80% | –
CC(C)CC(=O)N[C@H](C(=O)N[C@H](C(=O)N[C@@H](CC(C)C)[C@@H](O)CC(=O)N[C@@H](C)C(=O)N[C@@H](CC(C)C)[C@@H](O)CC(=O)O)C(C)C)C(C)C [Pepstatin, pepstatin] (Isovaleryl-VV[Sta]A[Sta]-OH) | not inhibited | 108% | not inhibited | 100% | –
[Cl-].[Cl-].[Zn+2] [ZnCl2] | – | 88% | – | 58% | –
elastase | – | – | – | – | tenderizing effect (in words) ([1]; listed as elastase powder): some tenderizing effect; also recorded: a proper tenderness cannot be obtained; time in which the tenderizing effect is exerted [1]: 24 h; tenderizing effect, summary of Examples 3 and 4 (in words) ([1]; meat thickness either 5 mm or 15 mm, up to 24 hours): cannot exert an effect of properly tenderizing the meat; tenderizing effect (in words) ([2]; listed as elastase powder): some tenderizing effect; also recorded: a proper tenderness cannot be obtained; time in which the tenderizing effect is exerted [2]: 24 h; tenderizing effect (in words) ([3]; reagent grade elastase): slightly tenderized; also recorded: the tenderness thus obtained was insufficient
leupeptine [Leupepsin] | not inhibited | 82% | not inhibited | 91% | –
papain (protein, UniProt P00784 134-345, looked up) Papain: IPEYVDWRQKGAVTPVKNQGSCGSCWAFSAVVTIEGIIKIRTGNLNEYSEQELLDCDRRSYGCNGGYPWSALQLVAQYGIHYRNTYPYEGVQRYCRSREKGPYAAKTDGVRQVQPYNEGALLYSIANQPVSVVLEAAGKDFQLYRGGIFVGPCGNKVDHAVAAVGYGPNYILIKNSWGTGWGENGYIRIKRGTGNSYGVCGLYTSSFYPVKN | – | – | – | – | tenderizing effect (in words) [1]: overtenderizing effect; time in which the tenderizing effect is exerted [1]: several; time to overtenderizing effect ([1]; used in a large amount): several minutes to scores of minutes; time to overtenderizing effect ([1]; used in a reduced amount): several hours; tenderizing effect (in words) [2]: overtenderizing effect; time in which the tenderizing effect is exerted [2]: several; time to overtenderize the meat ([3]; 4° C.): 24 h; time to overtenderize the meat ([3]; room temperature): ≤ 1 h
